≈ marks a conversion by molar mass, not a printed value.
Key:
[1] = test system: 4T1 tumour bearing BALB/c mice; assay: Blood (haematological) parameters estimation; type: in vivo
Experimental: A total of about 100 μL of blood was collected from the retroorbital route and collected into a tube with 10 μL of EDTA for a complete blood count such as RBC, WBC, platelets and hemoglobin analysis using Nihon Kohden blood analyzer (celltac alpha-MEK-6550, India).

[2] = test system: 4 T1 cells; assay: MTT cytotoxicity assay without irradiation; type: cell-based, murine; details: 4 T1 tumour cellular toxicity after 48 h
Experimental: The 4 T1 cell line, a murine breast tumour cell line derived from BALB/cf3H mice, was obtained from Elabsciences, Inc. The cytotoxicity of BP-based nanoformulation were evaluated using MTT assay. […] After 48 h, media was discarded and added with 50 μL of MTT reagent (2 mg/ml). The samples were then kept for 4 h of incubation and added with 50 μL DMSO to solubilize the formazan crystals. OD (optical density) was evaluated at 540 nm in a microplate reader (ELx800). Absorbance data were observed, and percentage tumour cell growth inhibition was measured using the following formula: Percentage growth inhibition=Absorbance of Blank−Absorbance of test/Absorbance of BlankX100

[3] = test system: chorioallantoic membrane (CAM) of fertilized chicken eggs; assay: Chorioallantoic membrane (CAM) assay; type: in vivo; details: 200 μL applied on day 8, observed at 8 and 24 h; DOX equivalent 200 μg
Experimental: The CAM assay is a method used to assess the effects of chemical agents/formulations on the developing, highly vascularized CAM. Fertilized chicken eggs were obtained, disinfected with 70 % ethanol, and incubated in a humidified environment. The eggs were kept horizontal and regularly rotated. […] Lenalidomide was considered as positive and normal saline (NS) as negative control. Following application, the egg's cavity was resealed with scotch tape and returned to the incubator. Changes in the blood vessel morphology were examined at 8 and 24 h after incubation ([Raychaudhuri et al., 2021]).

[4] = test system: 4 T1-breast tumour bearing BALB/c mice; assay: Pharmacodynamic study (antitumour efficacy); type: in vivo; details: i.v., 5 mg/kg eq. to DOX, 14 days
Experimental: Female BALB/c mice were given a subcutaneous injection of 4 T1 cells (1.5 × 10^6 cells) in 100 μL of cold PBS, into the dorsal flank. The breast tumour appeared in 10–14 days while the mice were under close observation. Using a vernier caliper, the length and width were measured, and the tumour volume was measured. When the tumour volume reached about 75 to 100 mm^3, the mice were grouped randomly to 10 groups (n = 3):
Group I: Saline (i v injection).
Group II: Saline + NIR (i v injection).
Group III: BPNSs (Dose: 5 mg/Kg) (i v injection).
Group IV: BPNSs + NIR (Dose: 5 mg/Kg) (i v injection).
After 2 h of injection, the laser irradiation groups were exposed to 808 nm NIR laser (1 W/cm^2) for 5 min. The starting day of the treatment was considered as 0th day and checked for body weight in every day and tumour volume in every 2 days. The following equation was used for the measurement of tumour volume (V): Volumemm^3=Width^2XLength/2
(§1) On the last day of the treatment (Day 14), the BALB/c mice were euthanized by cervical dislocation and major organs were collected, washed and fixed with 4 % paraformaldehyde for Hematoxylin and Eosin (H&E) staining.

[5] = test system: 4 T1-breast tumour bearing BALB/c mice; assay: Histopathological analysis (H&E) of tumour tissues and other organs; type: in vivo; parameters: key to Tumour cells / Necrosed area / Malignant features like nuclear pleomorphism, hyperchromatism / inflammation / Muscle invasion: -: Nil; + few; ++ Many; +++ Abundant; details: for Malignant features like nuclear pleomorphism, hyperchromatism / Mitotic count/10HPF / Muscle invasion / Necrosed area / Tumour cells / inflammation: tumour tissue, 14 days
Experimental: as §1
Three BALB/c mice from each group were sacrificed after 14 days of treatment. The tissues (liver, spleen, lung, heart, kidney, and breast tumour) were isolated and fixed with 10 % formalin for 24 to 48 h. The tissue slides were examined using the LX-500 LED trinocular Research microscope, and pictures were captured using the MiaCam CMOS AR 6pro microscope camera coupled to image AR pro software. The slides were graded according to tumour cells, necrosed areas, malignant features like nuclear pleomorphism and hyperchromatism, inflammation, muscle invasion and mitotic count counted in 10 consecutive high-power fields (HPFs).

[6] = In vivo pharmacokinetics after i.v. injection; details: 5 mg/kg DOX equivalent, BALB/c mice, plasma, Mean ± SD, n = 3
Experimental: Female BALB/c mice (6–8 weeks old, 18–25 g) were obtained from a certified animal supplier and used for the study. Prior to the start of the experiment, all animals were housed under standard laboratory conditions (12-h light/dark cycle, temperature 22 ± 2 °C, relative humidity 50–60 %) with ad libitum access to food and water. A two-week acclimatization period was provided to allow the animals to adjust to the laboratory environment. […] Mice were randomly assigned to experimental groups (n = 3 per group), and all efforts were made to minimize suffering. The allocation and data collection were conducted in a blinded manner wherever applicable. No animals were excluded from the analysis unless stated otherwise.
Blood sample was collected in EDTA solution containing tubes at intervals ranging from 5 min to 48 h post-administration and then centrifuged to separate the plasma ([Zeng et al., 2019]).

[7] = test system: 4 T1 cells; assay: Cellular uptake by flow cytometry; type: cell-based, murine; details: ~5 μg/mL, no irradiation
Experimental: To understand the cellular uptake of nanoformulations, flow cytometry was employed. 4 T1 cells were seeded into 6-well plates and allowed to adhere for 24 h prior to treatment. […] Followed by the removal of culture medium after 2 h of treatment, test samples were added, and the laser groups were exposed to NIR-II 808 nm laser for 5 min and kept in incubator for 2 h. The plates were taken and added with trypsin for the detachment of 4 T1 cells. It was then collected, centrifuged to separate free DOX and BP-based nanoformulation, and analyzed using a flow cytometer (BD Accuri). Untreated 4 T1 cells were used as a control group.

[8] = test system: 4 T1 cells; assay: In vitro PTT study (MTT with 808 nm NIR irradiation); type: cell-based, murine; details: 4 T1 tumour cellular toxicity after 48 h; 808 nm laser 1.0 W/cm^2 for 10 min
Experimental: Based on the results of cytotoxicity in 4 T1 cells produced by the test compounds, five concentrations were selected (100, 10, 1, 0.1, 0.001) to evaluate the extent of cytotoxicity in the presence of NIR radiation of 808 nm. 4 T1 cell line was seeded and incubated for 24 h. After refreshing the medium, the wells were added with samples at 37 °C for 4 h, and irradiated with 808 nm laser (1.0 W/cm^2) for 10 mins incubated till 48 h ([Phan et al., 2017]; [Xu et al., 2021]).
Absorbance data were observed, and percentage tumour cell growth inhibition was measured using the following formula: Percentage growth inhibition=Absorbance of Blank−Absorbance of test/Absorbance of BlankX100

[9] = test system: 4 T1-breast tumour bearing BALB/c mice; assay: Biodistribution study by in vivo fluorescence imaging; details: i.v., imaging 0.5 to 36 h post-injection
Description: In vivo biodistribution study of plain DOX, and BP-DOX@PDA-TF were monitored with an in vivo imaging system. […] Using IVIS® containing 620 nm and 780 nm filters respectively for excitation and emission, tumour accumulation trends were examined across various time periods following injection.

[10] = after 14 days of treatment and NIR Irradiation
[11] = after 14 days of treatment, no NIR irradiation

`COc1cccc2c1C(=O)c1c(O)c3c(c(O)c1C2=O)C[C@@](O)(C(=O)CO)C[C@@H]3O[C@H]1C[C@H](N)[C@H](O)[C@H](C)O1` [DOX, Doxorubicin] gave an HCT [1, 10] of 46.76±4.31%, an HGB [1, 10] of 13.88 ± 1.28 g/dL and an MCH [1, 10] of 16.35 ± 1.51 pg. The MCV [1, 10] was 50.93 ± 3.10 fL, the MPV [1, 10] was 6.39 ± 0.59 fL and the PDW [1, 10] was 14.34 ± 1.32 fL. The PLT [1, 10] was 924.2±85.27 ×10^3/µL, the RBC [1, 10] was 7.8±1.31 ×10^6/µL and the “RDW‐CV” value [1, 10] was 13.61±1.26%. For the same compound, the “RDW‐SD” value [1, 10] was 35.71 ± 3.29 fL, the WBC [1, 10] was 8.77±0.81 10^3/µL and the HCT [1, 11] was 42.69±4.36%. It also gave an HGB [1, 11] of 14.57 ± 0.42 g/dL, an MCH [1, 11] of 16.27 ± 1.64 pg and an MCV [1, 11] of 52.77 ± 4.81 fL. For the same compound, the MPV [1, 11] was 6.37 ± 1.21 fL, the PDW [1, 11] was 14.77 ± 2.06 fL and the PLT [1, 11] was 940±75.19 ×10^3/µL. The RBC [1, 11] was 9.39±1.2 ×10^6/µL, the “RDW‐CV” value [1, 11] was 13.77±0.38% and the “RDW‐SD” value [1, 11] was 38.17 ± 3.09 fL. The WBC [1, 11] was 9.73±1.5 10^3/µL, the “IC50 value, Non NIR Irradiated” value [2] was 2.84 µg/mL (≈ 5.23 µM) and the “toxicity to the CAM (coagulation, hemorrhage, vascular morphology, embryotoxicity)” value [3] was “notable sign of toxicity such as coagulation, bleeding, and embryo toxicity”. The “breast tumour growth suppression” value [4] was “failed to efficiently suppress the breast tumour growth”, the liver pathology ([5]; H&E, 14 days of treatment) was “severe hypertrophy and liver congestion” and the “Malignant features like nuclear pleomorphism, hyperchromatism” value ([5]; NIR irradiated) was “+++”. The “Mitotic count/10HPF” value ([5]; NIR irradiated) was 23 /10HPF, the Muscle invasion ([5]; NIR irradiated) was “-” and the Necrosed area ([5]; NIR irradiated) was “+++”. For the same compound, the Tumour cells ([5]; NIR irradiated) was “+++”, the inflammation ([5]; NIR irradiated) was “-” and the “Malignant features like nuclear pleomorphism, hyperchromatism” value ([5]; NIR non-irradiated) was “++”. The “Mitotic count/10HPF” value ([5]; NIR non-irradiated) was 4 /10HPF, the Muscle invasion ([5]; NIR non-irradiated) was “-” and the Necrosed area ([5]; NIR non-irradiated) was “-”. For the same compound, the Tumour cells ([5]; NIR non-irradiated) was “+”, the inflammation ([5]; NIR non-irradiated) was “+++” and the “AUC(0-t)” value [6] was 2976.15 ± 1191.277 ng·h/mL. For the same compound, the “AUC(0-∞)” value [6] was 3168.98 ± 1086.246 ng·h/mL, the Cmax [6] was 469.73 ± 93.78 ng/mL and the Ke [6] was 0.141 ± 0.05 h⁻¹. The T max [6] was 4.98 ± 0 min, the t1/2 [6] was 5.47 ± 2.15 h and the “cellular uptake (DOX fluorescence intensity)” value [7] was “greater fluorescence intensity than BP-based NPs”. For the same compound, the “IC50 value, NIR Irradiated” value [8] was 1.58 µg/mL (≈ 2.91 µM) and the “fluorescence signal of DOX at the tumour region” value [9] was “significantly reduced signal”.

From article PMC12356476, “Transferrin conjugated pH/NIR-responsive black phosphorus nanoplatform: A novel multimodal approach for breast cancer theranostics” (International Journal of Pharmaceutics: X, 2025)
